Laboratory results reported in publication PMC9678865, “An odorant-binding protein in the elephant's trunk is finely tuned to sex pheromone (Z)-7-dodecenyl acetate” (Scientific Reports, 2022).
“Also recorded” adds a separate entry of the source.

Key:
recombinant LafrOBP1 = recombinant LafrOBP1 (Loxodonta africana, UniProt G3UMG1); experiment: Competitive binding by displacement of 1-NPN; set-up: species or system African elephant (Loxodonta africana); conditions: protein and 1-NPN 2 μM each, ligand 2–16 μM
Procedure: (§1) Recombinant LafrOBP1 and EmaxOBP1 were then tested in ligand-binding assays using the Asian elephant pheromones (Z)-7-dodecenyl acetate and frontalin, and the insect pheromone components found in elephants, exo-brevicomin and (E)-β-farnesene, as well as structurally related compounds, and chemicals of different size and structure, which could contribute to estimate the specificity of these proteins. Both LafrOBP1 and EmaxOBP1 bound the fluorescent probe 1-NPN with good affinity (Fig. 5A), thus enabling the use of the fluorescent displacement assay to evaluate the affinities of other ligands. Some representative curves of competitive binding experiments for LafrOBP1 are shown in Fig. 5B-C, while in the histogram of Fig. 5D the binding spectra of LafrOBP1 and EmaxOBP1 are compared. The specificity of LafrOBP1 can be better appreciated from the graph of Fig. 6, where the affinities of esters to the protein are plotted as a function of the ligand's size.
(§2) Affinities of the fluorescent probe N-phenyl-1-naphthylamine (1-NPN) to EmaxOBP1 and LafrOBP1 (both expressed in yeast) were evaluated by titrating a 2 μM solution of each protein in 50 mM Tris-HCl, pH 7.4 with 1 mM 1-NPN in methanol to final concentrations of 2–16 μM. Dissociation constants of other ligands were measured by displacement of the fluorescent reporter 1-NPN from the complex. Accordingly, solutions of protein and 1-NPN, both at the concentration of 2 μM in 50 mM Tris-HCl, pH 7.4, were titrated with 1 mM methanol solutions of each ligand to final concentrations of 2–16 μM. Emission spectra were recorded on a PerkinElmer FL 6500 spectrofluorimeter in a right-angle configuration, at room temperature, with slits of 5 nm for both excitation and emission, using 1 cm path quartz cuvettes. The excitation wavelength was set at 337 nm and intensities were recorded in correspondence with the peak maximum, around 390 nm. Data for 1-NPN were processed with Prism software.
(§3) Dissociation constants of other ligands were calculated from the corresponding [IC]50 values (the. concentration of each ligand halving the initial value of fluorescence), using the equation: Kd = [IC]50/1 + [1-NPN]/KNPN, where [1-NPN] is the concentration of free 1-NPN and KNPN the. dissociation constant of the complex OBP/1-NPN.

recombinant EmaxOBP1 [1] = molecular target: T1, recombinant EmaxOBP1 (Elephas maximus, UniProt Q8HZN2); experiment: Competitive binding by displacement of 1-NPN; set-up: species or system Asian elephant (Elephas maximus); conditions: protein and 1-NPN 2 μM each, ligand 2–16 μM
Procedure: as §1, §2, §3

[2] = molecular target: natural LafrOBP1 (trunk wash fractions 26–29, also containing its isoform and LafrVEG) (Loxodonta africana, UniProt G3UMG1); experiment: Competitive fluorescent (1-NPN) ligand-binding assay on crude anion-exchange fractions 26–29 of trunk wash; set-up: species or system African elephant (Loxodonta africana); conditions: crude trunk wash fractions 26–29 / natural LafrOBP1
Procedure: Given the predominant presence of LafrOBP1 in the trunk wash of the African elephant, we attempted purification of this protein from a crude sample of this secretion by anion-exchange chromatography. Relevant fractions (#26–29) were analysed by SDS-PAGE, (Fig. 2A) and nanoLC-ESI-Q-Orbitrap-MS/MS to identify the proteins present and detect possible PTMs. The same fractions were also tested in ligand-binding assays with some of the two elephants' pheromones and other potential semiochemicals to detect any binding activity (Fig. 2B-C).
Figure 2 (A) Fractionation of a crude extract of trunk wash from the African elephant by anion-exchange chromatography. SDS-PAGE analysis of the fractions showing electrophoretic bands in the low molecular weight range (15–25 kDa). (B) Summary of the affinities to (Z)-7-dodecenyl acetate, (E)-β-farnesene and frontalin measured with crude samples of the same fractions. All of them bound with good affinity both (Z)-7-dodecenyl acetate and (E)-β-farnesene. […] Dissociation constants were evaluated using the procedure adopted when dealing with solutions of a pure protein; as this is not the case, the values have to be taken as a crude indication of the affinity of the ligands for the protein. (C) Examples of the competition curves measured with the three ligands on fraction 27. […]
as §2, with “Accordingly, solutions of protein and 1-NPN, both at the concentration of 2 μM in 50 mM Tris-HCl, pH 7.4, were titrated with 1 mM methanol solutions of each ligand to final concentrations of 2–16 μM.” left out, “Data for 1-NPN were processed with Prism software.” left out

recombinant EmaxOBP1 [3] = molecular target: T1, recombinant EmaxOBP1; experiment: Titration of recombinant protein with fluorescent probe 1-NPN; assay type: binding, Asian elephant (Elephas maximus); conditions: 2 μM protein in 50 mM Tris-HCl pH 7.4, room temperature
Procedure: as §2

[4] = system: second major band (apparent mass around 25 kDa) from expression of LafrOBP1 in P. pastoris; experiment: Binding of 1-NPN to the second band (around 25 kDa) from LafrOBP1 expression; set-up: species or system African elephant (Loxodonta africana); conditions: purified second band
Text: Based on above-reported proteomic analysis and on the available sequences in the protein databases, we decided to focus our functional study on the OBP1 of both species. Thus, LafrOBP1 and EmaxOBP1 were expressed in the yeast Pichia pastoris using the protocol reported in the Materials and Methods section. We chose to perform functional studies on recombinant proteins because attempts to purify natural LafrOBP1 from its contaminants were unsuccessful (data not shown). The recombinant proteins were secreted in the culture medium, concentrated by ultrafiltration and purified by anion-exchange chromatography, followed by a step of hydrophobic interaction chromatography on Phenyl Sepharose. Figure S3 reports the SDS-PAGE analysis relative to the expression and purification of the two proteins. The expression of EmaxOBP1 produced a single major band migrating with an apparent molecular weight (around 20 kDa), compatible with the calculated mass for this protein (18,506.7 Da). Instead, the expression of the African elephant orthologue afforded two major bands, the first migrating at the same level as EmaxOBP1, the second with an apparent mass around 25 kDa.

[5] = system: OBP in the trunk wash of the Asian elephant; set-up: method as in PMID 12269821; conditions: tritium-labelled ligand; radioactivity associated with OBP band; no dissociation constant; cited from earlier work

recombinant LafrOBP1, sequence (G3UMG1 entry or part of it): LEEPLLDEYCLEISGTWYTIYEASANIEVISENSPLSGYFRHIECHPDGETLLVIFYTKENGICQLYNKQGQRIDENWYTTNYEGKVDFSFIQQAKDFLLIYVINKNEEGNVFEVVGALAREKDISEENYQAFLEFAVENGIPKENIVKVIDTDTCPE
natural LafrOBP1 (trunk wash fractions 26–29, also containing its isoform and LafrVEG), sequence (G3UMG1 entry or part of it): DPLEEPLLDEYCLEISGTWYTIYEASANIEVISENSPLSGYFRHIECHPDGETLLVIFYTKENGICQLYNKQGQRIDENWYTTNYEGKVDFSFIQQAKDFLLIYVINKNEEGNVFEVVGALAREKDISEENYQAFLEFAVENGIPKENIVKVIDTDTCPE
T1 sequence (Q8HZN2 entry or part of it): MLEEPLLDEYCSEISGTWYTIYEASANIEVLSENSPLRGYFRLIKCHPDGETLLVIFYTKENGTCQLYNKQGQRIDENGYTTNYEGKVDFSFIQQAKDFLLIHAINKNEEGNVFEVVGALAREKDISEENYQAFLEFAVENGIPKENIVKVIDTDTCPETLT

| SMILES | binding to recombinant LafrOBP1 (in words) (recombinant LafrOBP1) | binding to recombinant EmaxOBP1 (in words) (recombinant EmaxOBP1 [1]) | further results |
| --- | --- | --- | --- |
| CCCC/C=C\CCCCCCOC(C)=O [(Z)-7-dodecenyl acetate] | strongest ligand | – | – |
| CC12CCC(CC1)C(C)(C)O2 [eucalyptol] | did not show significant binding | did not show significant binding | binding to recombinant EmaxOBP1 (in words) (recombinant EmaxOBP1 [1]; listed as eucaliptol): did not exhibit significant affinity; binding to recombinant LafrOBP1 (in words) (recombinant LafrOBP1; listed as eucaliptol): did not exhibit significant affinity |
| CC12CCCC(C)(OC1)O2 (stereo not drawn) [frontalin, 1,5-dimethyl-6,8-dioxabicyclo[3.2.1]octane] | no affinity; also recorded: did not exhibit any affinity | no affinity | binding to trunk wash fractions (in words) [2]: none of them appreciably bound; also recorded: no affinity |
| CC/C=C\CCOC(C)=O [(Z)-3-hexenyl acetate] | did not show significant binding | did not show significant binding | – |
| CCCCCC/C=C\CCCCCCCC=O [(Z)-9-hexadecenal] | did not show significant binding | did not show significant binding | – |
| CCCCCCCCCC=O [decanal] | did not show significant binding; also recorded: did not exhibit significant affinity | did not show significant binding; also recorded: did not exhibit significant affinity | – |
| CCCCCCCCCC1CCC(=O)O1 (stereo not drawn) [γ-tridecalactone] | did not show significant binding | did not show significant binding | – |
| CCCC/C=C\CCCCCCCCCC=O [(Z)-11-hexadecenal] | did not show significant binding; also recorded: did not exhibit significant affinity | did not show significant binding; also recorded: did not exhibit significant affinity | – |
| CCCC/C=C\CCCCCCCCCCOC(C)=O [(Z)-11-hexadecenyl acetate] | did not show significant binding | did not show significant binding | – |
| CC1(C)C2CCC1(C)C(O)C2 (stereo not drawn) [borneol] | did not show significant binding | did not show significant binding | – |
| CC[C@H]1O[C@]2(C)CCC[C@H]1O2 [exo-brevicomin, (1R,5S,7R)-7-ethyl-5-methyl-6,8-dioxabicyclo[3.2.1]octane] | – | – | binding to trunk wash fractions (in words) [2]: did not exhibit any affinity |
| CC(C)=CCC/C(C)=C/CC/C(C)=C/CO [farnesol] | – | – | binding to trunk wash fractions (in words) [2]: as good a ligand as (E)- β-farnesene |
| C=CC(=C)CC/C=C(\C)CCC=C(C)C [(E)-β-farnesene, (6E)-7,11-dimethyl-3-methylene-1,6,10-dodecatriene] | good ligand | – | – |
| CCCCCCCCCCCCCC(=O)OCC [ethyl myristate] | did not show significant binding | did not show significant binding | – |
| CCCCCC=O [hexanal] | did not exhibit significant affinity | did not exhibit significant affinity | – |
| CCCCCCCCCCCC=O [dodecanal] | did not show significant binding | did not show significant binding | – |
| c1ccc(Nc2cccc3ccccc23)cc1 [1-NPN, N-phenyl-1-naphthylamine] | – | – | Kd (recombinant EmaxOBP1 [3]): 0.46 µM; affinity to the 25 kDa band (in words) [4]: did not show any affinity |
| C=CCc1ccc(O)c(OC)c1 [eugenol] | did not show significant binding; also recorded: did not exhibit significant affinity | did not show significant binding; also recorded: did not exhibit significant affinity | – |
| CCCCCCCC=O [octanal] | did not show significant binding; also recorded: did not exhibit significant affinity | did not show significant binding; also recorded: did not exhibit significant affinity | – |
| CCCC/C=C\CCCCCCCCCCCC=O [(Z)-13-octadecenal] | did not show significant binding; also recorded: did not exhibit significant affinity | did not show significant binding; also recorded: did not exhibit significant affinity | – |
| CCCC/C=C/CCCCCCOC(C)=O [(E)-7-dodecenyl acetate] | – | – | binding to trunk wash OBP (in words) [5]: shown to bind |
| Cc1ccc(O)cc1 [p-cresol] | did not exhibit significant affinity | did not exhibit significant affinity | – |
